From article PMC5636972 (Cell Death & Disease, 2017)

Assays:
[1] = tested on: MDA-MB-231 cells; assay: MTT cell viability assay, MDA-MB-231; assay type: cell-based; conditions: for killing these cancer cells (in words): MDA-MB-231, MKN-45, HCT116, Colo205, Table 1; for EC50: MTT, 72 h
Source text: (§1) To evaluate the potency of I-Trp in killing these cancer cell lines, we performed MTT assay to determine the cell viability of target cells. […] The cancer cells with higher expression levels of CCT-β were indeed more sensitive to I-Trp.

[2] = tested on: MCF-10A cells; assay: MTT cell viability assay, non-tumorigenic MCF-10A; assay type: cell-based; conditions: for EC50: MTT, 72 h, normal cells
Source text: as §1

[3] = tested on: MKN-45 cells; assay: MTT cell viability assay, MKN-45; assay type: cell-based
Source text: as §1

[4] = tested on: HCT116 cells; assay: MTT cell viability assay, HCT116; assay type: cell-based
Source text: as §1

[5] = tested on: Colo205 cells; assay: MTT cell viability assay, Colo205; assay type: cell-based
Source text: as §1

[6] = tested on: I-Trp-induced apoptosis; assay: Reversal of I-Trp-induced apoptosis by pretreatment with inhibitors (sub-G0 flow cytometry); assay type: cell-based
Description: Figure 4 Effect of I-Trp on the levels of intracellular Ca^2+. (a) I-Trp induces intracellular Ca^2+ release in a concentration-dependent manner. Cells were pretreated with BAPTA/AM (negative control) for 1 h, with MCN-A-343 (positive control) or different concentrations of I-Trp and incubated with Fluo-4 for 40 min. After incubation, the fluorescence signal was immediately measured using a fluorescence microplate reader by excitation at 509 nm and emission at 516 nm. (b) Cells were pre-incubated with BAPTA/AM (1–20 μM) for 1 h prior to treatment with EC50 concentrations of I-Trp for 72 h. Cell apoptosis was assessed via PI-based flow cytometric analysis. Data are expressed as mean±S.D. ***P<0.001, significant difference as compared to control. ^#P<0.05, ^##P<0.01 and ^###P<0.001 significant difference as compared to I-Trp alone
Next, we used ERK1/2 inhibitor U0126,[33], [34] JNK inhibitor SP600125,[35], [36] and p38 inhibitor SB203580[37] to confirm the involvement of MAPKs in I-Trp-induced apoptosis. We pretreated the cancer cell lines with 0.5–10 μM U0126, 1–10 μM SP600125, or 1–10 μM SB203580 for 1 h and subsequently treated them with I-Trp to detect the sub-G0 cell accumulation by flow cytometry.
(§2) Cells (3 × 10^5) were fixed in 70% ice-cold EtOH for 30 min at RT. Cells were washed with PBS once and then incubated with propidium iodide (PI) staining solution (PBS containing 0.1 % BSA, 0.1% RNase A, and […] PI) for 30 min at RT in the dark. After the incubation, the cells were analyzed by flow cytometry to assess their DNA content.

[7] = tested on: MDA-MB-231, MKN-45, HCT116, and Colo205 cells; assay: Long-term colony formation assay; assay type: cell-based; conditions: 0.31 to 2.5 μM, 7 days
Source text: Next, we investigated the long-term effect of I-Trp on proliferation of the target cells using the colony formation assay.

[8] = tested on: intracellular Ca^2+; assay: Fluo-4 intracellular Ca2+ assay; assay type: cell-based; conditions: the four cancer cell lines, Fluo-4, 40 min
Description: We used a Fluo-4 direct calcium assay kit from Invitrogen (catalog item F10471) to measure the intracellular calcium response to I-Trp in target cancer cell lines. Cancer cell lines were cultured in 96-well plates with media containing 10% FBS. After reaching confluence, cancer cells were treated with MCN-A-343 (positive control), BATPA (negative control), or I-Trp and incubated with Fluo-4 direct calcium reagent loading solution for 40 min. After incubation, the fluorescence signal was immediately measured using a fluorescence microplate reader at excitation and emission of 509 and 516 nm, respectively.

[9] = tested on: caspases; assay: Caspase activity assay (fluorescent substrates); assay type: cell-based; conditions: EC50 concentrations, 72 h, the four cancer cell lines
Description: The caspase activity assay was performed according to the manufacturer’s guidelines (BioVision). Briefly, cell lysates (200 μg) were diluted in 50 μl of cell lysis buffer (supplied by the kit). Equal volumes of the 2 × reaction buffer (supplied by the kit) containing 10 mM DTT were added to the cell lysates. Subsequently, 50 μM of fluorescent dye-conjugated caspase substrate was individually added to the designated caspase activity assay. After a 2-h incubation, free fluorescent dyes in the solution were read in a fluorimeter equipped with a 385-nm excitation filter and 510-nm emission filter.

[10] = tested on: proteasome activity; assay: Proteasome activity assay in cell lysates; assay type: cell-based
Description: After being treated with I-Trp for designated time periods, cells were collected and resuspended in cell lysis buffer (BioVision). Aliquots of cell lysates (100 μg) were incubated with 1 μM of fluorescent proteasome substrate (BioVision) for 30 min at 37 °C. The fluorescent intensity was read using a fluorimeter with an exciting wavelength at 355 nm and emission wavelength at […] and presented as relative proteasome activity.

[11] = tested on: CCT-β and β-tubulin mRNA; assay: Real time qPCR for CCT-β and β-tubulin mRNA; assay type: cell-based; conditions: HCT116, MKN-45, MDA-MB-231, Colo205
Source text: Mean values ± S.D. from three independent samples are shown. The RT-PCR experiments reveal that the mRNA levels of CCT-β and β-tubulin were not changed after I-Trp treatment in the tested cancer cells.

[12] = tested on: MDA-MB-231 cells; assay: PI-based flow cytometric sub-G0 apoptosis assessment; assay type: cell-based; conditions: MDA-MB-231 with CCT-β shRNA clones, 10 μM, 72 h
Description: as §2

[13] = tested on: MDA-MB-231, MKN-45, HCT116, and Colo205 cells; assay: as above; assay type: cell-based; conditions: 72 h, different concentrations, the four cancer cell lines
Description: as §2

[14] = tested on: β-tubulin; set-up: method as in PMID 19690144; conditions: cited from earlier work
[15] = tested on: microtubules; set-up: method as in PMID 19690144; conditions: cited from earlier work
[16] = tested on: CCT-β : β-tubulin complex; assay: co-IP with CCT-β antibody, immunoblot for β-tubulin; assay type: cell-based; conditions: 5 or 10 μM, 6 h; MDA-MB-231, MKN-45, HCT116, Colo205 lysates
Description: With GADPH as a protein-loading control, we also confirmed that the input of β-tubulin and CCT-β in the experiments was equal with or without treatment. […] After 24–48 h of I-Trp treatment, cells underwent apoptosis to trigger proteasome activity for cellular protein degradation as reported previously.[14]
(a) Using CCT-β antibody to co-IP the complex, and then detecting the quantity of trapped β-tubulin with western blotting using β-tubulin antibody. […] The cancer cells were treated with I-Trp for the designated time periods. Cell lysates were examined using the proteasome activity assay. (c) The changed expression levels of ER stress protein markers upon I-Trp treatment
The cell lysates (100 μg) were boiled for 5 min in SDS sample buffer (62.5 mM Tris-HCl pH 6.7, 1.25% SDS, 12.5% glycerol, and 2.5% β-mercaptoethanol), and the proteins were separated via SDS-PAGE. For western blotting, proteins were transferred onto a PVDF membrane (Millipore, MA, USA) and incubated with different antibody agents. After incubation with horseradish peroxidase (HRP)-conjugated secondary antibody, immuno-reactive protein bands were visualized using the enhanced chemiluminescence (ECL) system (Amersham Bioscience, Tokyo, Japan).

Structure (SMILES): COC(=O)C(Cc1c[nH]c2ccccc12)NC(=O)CBr (stereo not drawn) [Compound 1b]
- killing these cancer cells (in words) [1]: almost equipotent as I-Trp (1a)
- EC50 [1]: 3.75 µM
- EC50 [2]: > 20 µM
- EC50 ([3]; 72 h): 2.5 µM
- EC50 ([4]; 72 h): 1.1 µM
- EC50 ([5]; 72 h): 1.6 µM

Structure (SMILES): COC(=O)C(Cc1c[nH]c2ccccc12)NC(=O)CCl (stereo not drawn) [Compound 1c]
- killing these cancer cells (in words) [1]: mostly inactive
- EC50 [1]: 19.5 µM
- EC50 [2]: > 20 µM
- EC50 ([3]; 72 h): > 20 µM
- EC50 ([4]; 72 h): > 20 µM
- EC50 ([5]; 72 h): > 20 µM

Structure (SMILES): COC(=O)C(Cc1c[nH]c2ccccc12)NC(=O)C(Cl)Cl (stereo not drawn) [Compound 1d]
- EC50 [1]: > 20 µM
- EC50 [2]: > 20 µM
- EC50 ([3]; 72 h): > 20 µM
- EC50 ([4]; 72 h): > 20 µM
- EC50 ([5]; 72 h): > 20 µM

Structure (SMILES): COC(=O)C(Cc1c[nH]c2ccccc12)NC(=O)C[N+](=O)[O-] (stereo not drawn) [Compound 1e]
- EC50 [1]: > 20 µM
- EC50 [2]: > 20 µM
- EC50 ([3]; 72 h): 14.1 µM
- EC50 ([4]; 72 h): 20.9 µM
- EC50 ([5]; 72 h): 15.9 µM

Structure (SMILES): COC(=O)C(Cc1c[nH]c2ccccc12)NC(=O)CC(F)(F)F (stereo not drawn) [Compound 1f]
- EC50 [1]: > 20 µM
- EC50 [2]: > 20 µM
- EC50 ([3]; 72 h): > 20 µM
- EC50 ([4]; 72 h): > 20 µM
- EC50 ([5]; 72 h): > 20 µM

Structure (SMILES): COC(=O)C(Cc1c[nH]c2ccccc12)NC(=O)C(F)(F)F (stereo not drawn) [Compound 1g]
- EC50 [1]: > 20 µM
- EC50 [2]: > 20 µM
- EC50 ([3]; 72 h): > 20 µM
- EC50 ([4]; 72 h): > 20 µM
- EC50 ([5]; 72 h): > 20 µM

Structure (SMILES): COC(=O)C(Cc1c[nH]c2ccccc12)NC(=O)CC#N (stereo not drawn) [Compound 1h]
- EC50 [1]: > 20 µM
- EC50 [2]: > 20 µM
- EC50 ([3]; 72 h): > 20 µM
- EC50 ([4]; 72 h): > 20 µM
- EC50 ([5]; 72 h): > 20 µM

Structure (SMILES): COC(=O)C1Cc2c([nH]c3ccccc23)C(c2ccccc2)N1C(=O)CCl (stereo not drawn) [Compound 3]
- EC50 ([1]; Homo sapiens, MDA-MB-231): 2.7 µM
- killing these cancer cells (in words) [1]: effectively killed cancer cells
- EC50 ([2]; Homo sapiens, MCF-10A): > 20 µM
- EC50 ([3]; Homo sapiens, MKN-45, 72 h): 4.7 µM
- EC50 ([4]; Homo sapiens, HCT-116, 72 h): 3.3 µM
- EC50 ([5]; Homo sapiens, COLO 205, 72 h): 8.1 µM

Structure (SMILES): COC(=O)C1Cc2c([nH]c3ccccc23)C(c2ccccc2)N1C(=O)CI (stereo not drawn) [Compound 4]
- EC50 ([1]; Homo sapiens, MDA-MB-231): 0.59 µM
- potency relative to doxorubicin ([1]; cancer cell lines of Table 1): slightly less (~twofold) potent than doxorubicin
- EC50 ([2]; Homo sapiens, MCF-10A): ~20 µM
- toxicity relative to doxorubicin on MCF-10A ([2]; MCF-10A): significantly less (~fivefold) toxic compared to doxorubicin
- EC50 ([3]; Homo sapiens, MKN-45, 72 h): 1.6 µM
- EC50 ([4]; Homo sapiens, HCT-116, 72 h): 0.54 µM
- EC50 ([5]; Homo sapiens, COLO 205, 72 h): 0.99 µM

Structure (SMILES): N#CC(=C(/N)Sc1ccccc1N)/C(C#N)=C(/N)Sc1ccccc1N [Compound U0126]
- reversal of I-Trp-induced apoptosis ([6]; MKN-45 cells, 0.5–10 μM pretreatment 1 h): could not reverse the I-Trp-induced apoptosis

Structure (SMILES): COc1cccc2c1C(=O)c1c(O)c3c(c(O)c1C2=O)C[C@@](O)(C(=O)CO)C[C@@H]3O[C@H]1C[C@H](N)[C@H](O)[C@H](C)O1 [Doxorubicin, reference compound]
- EC50 ([1]; Homo sapiens, MDA-MB-231): 0.46 µM
- EC50 ([2]; Homo sapiens, MCF-10A): 3.8 µM
- EC50 ([3]; Homo sapiens, MKN-45, 72 h): 0.24 µM
- EC50 ([4]; Homo sapiens, HCT-116, 72 h): 0.26 µM
- EC50 ([5]; Homo sapiens, COLO 205, 72 h): 0.5 µM

Structure (SMILES): COC(=O)[C@@H](Cc1c[nH]c2ccccc12)NC(=O)CI [I-Trp]
- colony formation [7]: formed more diffuse or smaller colonies
- EC50 [1]: 2.5 µM
- intracellular Ca^2+ mobilization [8]: induced the intracellular Ca^2+ mobilization in a dose-dependent manner
- activities of caspases-2 to -9 [9]: enhanced
- toxicity to MCF-10A (in words) ([2]; MCF-10A): non-toxic
- EC50 [2]: > 20 µM
- EC50 ([3]; 72 h): 1.27 µM
- proteasome activities ([10]; MDA-MB-231 cells): less apparent
- proteasome activities ([10]; MKN-45, HCT116, and Colo205 cells): elevated in an I-Trp dose-dependent manner
- EC50 ([4]; 72 h): 0.88 µM
- mRNA levels of CCT-β and β-tubulin [11]: not changed
- EC50 ([5]; 72 h): 0.9 µM
- cell death (sub-G0) after knockdown of CCT-β [12]: significantly (P<0.001) reduced cell death from I-Trp exposure
- sub-G0 cell accumulation [13]: dose-dependent sub-G0 cell accumulation
- covalent modification of β-tubulin [14]: alkylate Cys^354 of β-tubulin
- effect on polymerization/depolymerization of microtubules [15]: does not affect the polymerization/depolymerization of microtubules
- disruption of the CCT-β : β-tubulin complex (trapped β-tubulin) [16]: disrupted the CCT-β : β-tubulin complex

Structure (SMILES): C[S+]([O-])c1ccc(-c2nc(-c3ccncc3)c(-c3ccc(F)cc3)[nH]2)cc1 (stereo not drawn) [SB203580]
- reversal of I-Trp-induced apoptosis ([6]; 1–10 μM pretreatment 1 h, the cancer cell lines): reduced the percentage of I-Trp-induced apoptotic cells

Structure (SMILES): Oc1c2ccccc2c2c3c(cccc13)N=N2 [SP600125]
- reversal of I-Trp-induced apoptosis ([6]; MDA-MB-231 and HCT116 cells, 1–10 μM pretreatment 1 h): could not reverse I-Trp-induced apoptosis
